Laboratory results taken from ChEMBL document CHEMBL1201862, “PubChem BioAssay data set” (2004).
Calls of active or inactive are those of the source.

Legend:
CHO-K1 = assay: (§1) Counterscreen for antagonists of the orexin 1 receptor (OX1R; HCRTR1): Homogeneous time resolved fluorescence (HTRF)-based cell-based dose response assay to identify antagonists of the parental CHO-K1 cell line. [Related pubchem assays (depositor defined):AID434989, AID435008, AID463079, AID485270, AID492963, AID492964, AID492965, AID493232, AID504699, AID504701]; assay type: functional; conditions: Cricetulus griseus
[1] = as §1, with “Fluorescence-based” for “Homogeneous time resolved fluorescence (HTRF)-based”, “cell-based high throughput” for “cell-based”, “CHO” for “CHO-K1”; assay type: functional
[2] = biological target: T1, Orexin/Hypocretin receptor type 1 (Homo sapiens, UniProt O43613); assay: Homogeneous Time Resolved Fluorescence (HTRF)-based cell-based high throughput dose response assay for antagonists of the orexin 1 receptor (OX1R; HCRTR1). [Related pubchem assays (depositor defined):AID434989, AID435008, AID463079, AID485270, AID492963, AID492964, AID492965, AID493232, AID504717, AID504718]; assay type: functional
T1 sequence (O43613 whole entry): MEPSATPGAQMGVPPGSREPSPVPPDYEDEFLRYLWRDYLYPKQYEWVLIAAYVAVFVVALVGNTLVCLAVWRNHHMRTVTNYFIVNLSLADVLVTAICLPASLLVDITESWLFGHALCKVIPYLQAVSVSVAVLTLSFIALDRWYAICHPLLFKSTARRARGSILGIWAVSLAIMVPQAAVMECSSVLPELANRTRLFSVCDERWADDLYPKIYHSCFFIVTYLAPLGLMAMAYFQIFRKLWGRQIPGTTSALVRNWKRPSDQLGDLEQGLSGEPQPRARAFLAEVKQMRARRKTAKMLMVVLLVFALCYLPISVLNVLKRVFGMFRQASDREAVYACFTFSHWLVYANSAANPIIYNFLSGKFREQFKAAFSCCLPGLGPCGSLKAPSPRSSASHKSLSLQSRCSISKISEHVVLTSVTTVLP

[3] = biological target: T1, Orexin/Hypocretin receptor type 1; assay: Fluorescence-based cell-based high throughput dose response assay for antagonists of the orexin 1 receptor (OX1R; HCRTR1). [Related pubchem assays (depositor defined):AID434989, AID435008, AID463079, AID485270, AID492963, AID492964, AID492965, AID493232, AID504717, AID504718]; assay type: functional
Orexin receptor type 2 [4] = biological target: T2, Orexin receptor type 2 (Homo sapiens, UniProt O43614); assay: Counterscreen assay for antagonists of the orexin 1 receptor (OX1R; HCRTR1): Fluorescence-based cell-based dose response assay for antagonists of the orexin 2 receptor (OX2R; HCRTR2), run by assay provider.; assay type: functional
T2 sequence (O43614 whole entry): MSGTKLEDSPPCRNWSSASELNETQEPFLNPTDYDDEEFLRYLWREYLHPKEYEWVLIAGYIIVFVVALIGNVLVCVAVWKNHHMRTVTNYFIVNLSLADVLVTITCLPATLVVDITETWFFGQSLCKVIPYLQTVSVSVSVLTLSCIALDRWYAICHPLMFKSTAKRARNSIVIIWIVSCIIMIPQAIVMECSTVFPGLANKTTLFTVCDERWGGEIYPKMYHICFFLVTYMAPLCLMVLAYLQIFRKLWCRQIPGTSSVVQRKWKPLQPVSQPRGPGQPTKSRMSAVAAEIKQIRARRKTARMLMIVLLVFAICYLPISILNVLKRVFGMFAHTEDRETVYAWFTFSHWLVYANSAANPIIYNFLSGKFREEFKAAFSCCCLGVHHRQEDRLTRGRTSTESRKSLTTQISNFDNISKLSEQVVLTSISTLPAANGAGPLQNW

Orexin receptor type 2 [5] = biological target: T2, Orexin receptor type 2; assay: Counterscreen assay for antagonists of the orexin 1 receptor (OX1R; HCRTR1): Homogeneous Time Resolved Fluorescence (HTRF)-based cell-based dose response assay for antagonists of the orexin 2 receptor (OX2R; HCRTR2), run by assay provider.; assay type: functional
[6] = biological target: FAD-linked sulfhydryl oxidase ALR (Homo sapiens, UniProt P55789); assay: ALR-catalysed DTT oxidation blockers – biochemical, H2O2 detection, luminescence, cherry-pick, dose response (AID 493248)
[7] = biological target: T3, Replicative DNA helicase DnaB (Mycobacterium tuberculosis, UniProt P9WMR3); assay: DnaB intein splicing inhibitors, dose response, biochemical, cell-free fluorescence (AID 449749); assay type: functional
T3 sequence (P9WMR3 whole entry): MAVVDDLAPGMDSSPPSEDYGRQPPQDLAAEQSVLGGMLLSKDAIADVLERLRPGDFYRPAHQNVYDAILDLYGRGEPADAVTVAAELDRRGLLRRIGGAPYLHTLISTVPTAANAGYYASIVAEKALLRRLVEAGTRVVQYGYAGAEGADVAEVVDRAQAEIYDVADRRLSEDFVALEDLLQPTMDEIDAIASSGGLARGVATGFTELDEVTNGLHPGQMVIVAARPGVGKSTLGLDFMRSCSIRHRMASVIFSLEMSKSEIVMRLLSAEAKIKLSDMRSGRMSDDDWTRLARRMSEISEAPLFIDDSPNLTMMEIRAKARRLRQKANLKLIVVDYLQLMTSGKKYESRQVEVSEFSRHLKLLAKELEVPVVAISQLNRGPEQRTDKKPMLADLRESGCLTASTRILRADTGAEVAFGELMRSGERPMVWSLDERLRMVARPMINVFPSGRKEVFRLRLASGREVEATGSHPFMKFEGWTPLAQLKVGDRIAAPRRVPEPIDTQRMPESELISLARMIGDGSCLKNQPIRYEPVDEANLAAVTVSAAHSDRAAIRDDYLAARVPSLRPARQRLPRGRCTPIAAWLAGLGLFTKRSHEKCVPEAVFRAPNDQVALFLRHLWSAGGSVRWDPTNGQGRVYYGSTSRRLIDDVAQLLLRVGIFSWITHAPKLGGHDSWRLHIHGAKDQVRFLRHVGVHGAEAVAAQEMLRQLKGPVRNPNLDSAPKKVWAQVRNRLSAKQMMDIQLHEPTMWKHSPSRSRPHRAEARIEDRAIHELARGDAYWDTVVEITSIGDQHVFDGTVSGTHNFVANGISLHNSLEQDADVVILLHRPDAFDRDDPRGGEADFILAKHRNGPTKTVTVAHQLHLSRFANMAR

Protein RecA = biological target: T4, Protein RecA (Mycobacterium tuberculosis, UniProt P9WHJ3); assay: Fluorescence Cell-Free Homogeneous Dose Retest to Identify Inhibitors of RecA-Intein Splicing Activity. [Related pubchem assays (depositor defined):AID2097, AID2223, AID489010, AID492950]; assay type: functional
T4 sequence (P9WHJ3 whole entry): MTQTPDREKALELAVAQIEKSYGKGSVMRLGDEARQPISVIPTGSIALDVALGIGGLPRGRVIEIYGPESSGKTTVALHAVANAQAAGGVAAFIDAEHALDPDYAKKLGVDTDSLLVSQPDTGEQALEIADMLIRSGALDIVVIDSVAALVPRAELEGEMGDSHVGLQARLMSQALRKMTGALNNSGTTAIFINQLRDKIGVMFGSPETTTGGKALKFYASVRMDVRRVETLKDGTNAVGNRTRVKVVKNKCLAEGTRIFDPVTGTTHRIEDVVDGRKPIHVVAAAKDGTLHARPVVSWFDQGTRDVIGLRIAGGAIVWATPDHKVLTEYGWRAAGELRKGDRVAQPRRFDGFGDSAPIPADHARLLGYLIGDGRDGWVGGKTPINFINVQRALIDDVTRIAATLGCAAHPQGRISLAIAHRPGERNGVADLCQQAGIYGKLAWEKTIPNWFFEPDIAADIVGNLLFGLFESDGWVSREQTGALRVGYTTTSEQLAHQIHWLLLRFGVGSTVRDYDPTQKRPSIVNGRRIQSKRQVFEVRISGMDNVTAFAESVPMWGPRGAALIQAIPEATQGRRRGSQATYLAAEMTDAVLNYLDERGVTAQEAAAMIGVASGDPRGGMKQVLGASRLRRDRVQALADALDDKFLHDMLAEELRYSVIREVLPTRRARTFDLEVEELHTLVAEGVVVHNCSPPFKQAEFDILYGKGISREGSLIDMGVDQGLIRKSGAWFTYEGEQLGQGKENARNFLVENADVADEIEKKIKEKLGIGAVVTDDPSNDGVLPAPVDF

Genome polyprotein = Genome polyprotein (dengue virus type 2, UniProt P29990); assay: flavivirus cap methylation enzyme inhibition – biochemical, confirmation dose response, primary screen (AID 588689); assay type: functional
[8] = Trypanosoma cruzi growth suppression in host cells – NIH3T3 host cells, beta-gal luminescence, confirmation (AID 2044); assay type: functional, cell-based;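 also: intracellular parasites grown in NIH/3T3 mouse fibroblasts as host cells; luminescent beta-galactosidase reporter signal from transgenic T. cruzi replicating inside host cells; inhibitors lower the luminescence signal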
[9] = NIH3T3 cell viability loss – ATP luminescence, mouse fibroblasts, counter-screen, dose response (AID 2010); assay type: functional, cell-based;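 also: cells exposed to compound for about 90 hours before reading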
[10] = biological target: Heat shock protein HSP 90-alpha (Homo sapiens, UniProt P07900); assay type: functional, organism-based
[11] = biological target: Luciferin 4-monooxygenase (Photinus pyralis, UniProt P08659); assay: inhibition of purified Photinus pyralis luciferase – biochemical, luminescence, dose response (AID 1891)
[12] = Luminescence Cell-Based Dose Confirmation HTS to Identify Inhibitors of Platelet Dense Granule Release. [Related pubchem assays: 1663 (Primary HTS), 1678 (Summary of Project)]; assay type: functional
Cytochrome P450 2C19 = Cytochrome P450 2C19 (Homo sapiens, UniProt P33261); assay: Cytochrome panel assay with activity outcomes. Panel member name: p450-cyp2c19 Compounds with AC50 equal or less than 10 uM are considered active; assay type: functional; conditions: read-out: AC50
[13] = biological target: Ras and Rab interactor 1/Tyrosine-protein kinase ABL1 (Homo sapiens, UniProt P00519+Q13671); assay type: functional;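 also: biochemical TR-FRET dose-response test measuring inhibition of binding between Rin1 and Abl proteins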
Cytochrome P450 1A2 = biological target: T5, Cytochrome P450 1A2 (Homo sapiens, UniProt P05177);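 also: PubChem cytochrome P450 panel assay, CYP1A2 panel member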
T5 sequence (P05177 whole entry): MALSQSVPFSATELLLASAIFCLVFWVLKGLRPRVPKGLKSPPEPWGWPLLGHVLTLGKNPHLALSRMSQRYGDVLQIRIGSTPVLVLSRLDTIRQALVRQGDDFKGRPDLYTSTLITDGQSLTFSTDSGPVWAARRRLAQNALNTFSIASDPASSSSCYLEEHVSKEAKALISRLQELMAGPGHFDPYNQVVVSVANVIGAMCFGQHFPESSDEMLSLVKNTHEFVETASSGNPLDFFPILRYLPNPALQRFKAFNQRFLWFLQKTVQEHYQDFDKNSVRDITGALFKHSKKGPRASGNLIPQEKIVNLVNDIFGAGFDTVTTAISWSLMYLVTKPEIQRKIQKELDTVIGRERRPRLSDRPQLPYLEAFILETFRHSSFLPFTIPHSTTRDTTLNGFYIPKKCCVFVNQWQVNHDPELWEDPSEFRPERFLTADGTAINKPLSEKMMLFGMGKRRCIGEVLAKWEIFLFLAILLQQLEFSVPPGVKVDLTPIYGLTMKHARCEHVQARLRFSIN

Cytochrome P450 3A4 = Cytochrome P450 3A4 (Homo sapiens, UniProt P08684);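 also: CYP3A4 tested as one member of a cytochrome P450 panel screen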
Aurora kinase A = biological target: T6, Aurora kinase A (Homo sapiens, UniProt O14965); assay type: functional;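 also: value from the Navigating the Kinome kinase panel profiling, panel entry STK6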
T6 sequence (O14965 whole entry): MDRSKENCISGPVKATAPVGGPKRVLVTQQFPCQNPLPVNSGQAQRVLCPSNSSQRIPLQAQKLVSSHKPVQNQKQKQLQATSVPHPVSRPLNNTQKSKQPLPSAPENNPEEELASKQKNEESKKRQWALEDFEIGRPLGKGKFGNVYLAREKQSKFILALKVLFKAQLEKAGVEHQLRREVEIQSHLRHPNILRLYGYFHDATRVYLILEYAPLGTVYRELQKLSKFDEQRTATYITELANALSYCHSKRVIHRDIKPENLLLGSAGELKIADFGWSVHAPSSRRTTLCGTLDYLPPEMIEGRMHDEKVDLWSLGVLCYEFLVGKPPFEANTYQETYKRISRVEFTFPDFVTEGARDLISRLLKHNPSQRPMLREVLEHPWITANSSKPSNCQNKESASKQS

Aurora kinase B = Aurora kinase B (Homo sapiens, UniProt Q96GD4); assay type: functional
Sequence of Aurora kinase B (Q96GD4 whole entry): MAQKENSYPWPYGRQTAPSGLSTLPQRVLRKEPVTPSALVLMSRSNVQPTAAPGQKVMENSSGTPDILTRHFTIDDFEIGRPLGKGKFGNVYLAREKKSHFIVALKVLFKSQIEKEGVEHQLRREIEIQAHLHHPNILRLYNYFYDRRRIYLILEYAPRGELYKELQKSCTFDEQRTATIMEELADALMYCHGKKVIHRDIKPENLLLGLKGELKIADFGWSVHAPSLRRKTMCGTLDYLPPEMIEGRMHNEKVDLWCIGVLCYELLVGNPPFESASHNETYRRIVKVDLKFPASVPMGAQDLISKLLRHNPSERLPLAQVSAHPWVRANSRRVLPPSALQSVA

Sequence of FAD-linked sulfhydryl oxidase ALR (P55789 whole entry): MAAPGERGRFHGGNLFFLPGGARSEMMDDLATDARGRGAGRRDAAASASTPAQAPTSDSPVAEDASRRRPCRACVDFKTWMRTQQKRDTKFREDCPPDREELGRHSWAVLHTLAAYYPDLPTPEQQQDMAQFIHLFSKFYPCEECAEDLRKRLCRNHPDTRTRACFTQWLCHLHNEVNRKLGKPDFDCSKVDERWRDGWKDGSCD
Sequence of Luciferin 4-monooxygenase (P08659 whole entry): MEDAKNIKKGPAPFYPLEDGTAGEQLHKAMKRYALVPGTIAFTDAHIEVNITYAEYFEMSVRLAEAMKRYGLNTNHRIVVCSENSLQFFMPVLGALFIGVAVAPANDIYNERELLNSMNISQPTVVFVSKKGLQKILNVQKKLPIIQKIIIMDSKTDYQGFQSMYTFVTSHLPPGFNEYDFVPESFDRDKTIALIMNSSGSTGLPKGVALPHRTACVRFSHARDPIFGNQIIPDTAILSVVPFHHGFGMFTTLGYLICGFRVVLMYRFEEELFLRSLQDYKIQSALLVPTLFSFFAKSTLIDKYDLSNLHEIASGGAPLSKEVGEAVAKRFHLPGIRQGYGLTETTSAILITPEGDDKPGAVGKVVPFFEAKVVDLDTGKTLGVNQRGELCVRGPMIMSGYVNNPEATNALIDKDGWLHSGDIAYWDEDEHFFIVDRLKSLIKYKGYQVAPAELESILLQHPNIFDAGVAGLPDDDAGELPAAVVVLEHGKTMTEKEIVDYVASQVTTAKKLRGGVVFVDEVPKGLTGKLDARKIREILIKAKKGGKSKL
Sequence of Cytochrome P450 3A4 (P08684 whole entry): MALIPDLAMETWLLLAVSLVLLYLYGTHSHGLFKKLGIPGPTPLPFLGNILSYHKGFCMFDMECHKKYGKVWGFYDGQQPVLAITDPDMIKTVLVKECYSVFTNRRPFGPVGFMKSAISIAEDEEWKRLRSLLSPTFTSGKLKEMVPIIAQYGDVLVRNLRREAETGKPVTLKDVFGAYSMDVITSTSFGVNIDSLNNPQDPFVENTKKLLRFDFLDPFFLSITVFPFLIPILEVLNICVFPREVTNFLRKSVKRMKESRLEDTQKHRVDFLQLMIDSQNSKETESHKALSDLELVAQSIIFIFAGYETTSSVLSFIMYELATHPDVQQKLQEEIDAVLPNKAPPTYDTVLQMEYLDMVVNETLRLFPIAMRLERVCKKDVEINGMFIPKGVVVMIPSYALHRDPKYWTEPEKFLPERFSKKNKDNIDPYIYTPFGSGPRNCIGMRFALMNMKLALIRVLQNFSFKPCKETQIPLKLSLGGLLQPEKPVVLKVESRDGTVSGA
Sequence of Cytochrome P450 2C19 (P33261 whole entry): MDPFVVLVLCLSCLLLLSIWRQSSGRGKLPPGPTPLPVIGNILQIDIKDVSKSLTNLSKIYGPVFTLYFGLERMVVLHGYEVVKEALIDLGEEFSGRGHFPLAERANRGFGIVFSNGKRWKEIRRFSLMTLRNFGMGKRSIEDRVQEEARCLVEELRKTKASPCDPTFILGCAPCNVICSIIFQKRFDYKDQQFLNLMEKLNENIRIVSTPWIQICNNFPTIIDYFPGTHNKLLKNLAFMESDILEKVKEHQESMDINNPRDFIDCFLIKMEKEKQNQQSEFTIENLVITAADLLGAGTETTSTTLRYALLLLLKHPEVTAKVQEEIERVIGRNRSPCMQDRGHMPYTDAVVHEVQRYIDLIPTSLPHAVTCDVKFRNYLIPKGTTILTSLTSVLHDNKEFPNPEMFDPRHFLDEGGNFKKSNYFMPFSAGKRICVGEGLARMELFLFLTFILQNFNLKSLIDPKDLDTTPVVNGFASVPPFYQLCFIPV
Sequence of Genome polyprotein (P29990 2492-3391 limits assumed): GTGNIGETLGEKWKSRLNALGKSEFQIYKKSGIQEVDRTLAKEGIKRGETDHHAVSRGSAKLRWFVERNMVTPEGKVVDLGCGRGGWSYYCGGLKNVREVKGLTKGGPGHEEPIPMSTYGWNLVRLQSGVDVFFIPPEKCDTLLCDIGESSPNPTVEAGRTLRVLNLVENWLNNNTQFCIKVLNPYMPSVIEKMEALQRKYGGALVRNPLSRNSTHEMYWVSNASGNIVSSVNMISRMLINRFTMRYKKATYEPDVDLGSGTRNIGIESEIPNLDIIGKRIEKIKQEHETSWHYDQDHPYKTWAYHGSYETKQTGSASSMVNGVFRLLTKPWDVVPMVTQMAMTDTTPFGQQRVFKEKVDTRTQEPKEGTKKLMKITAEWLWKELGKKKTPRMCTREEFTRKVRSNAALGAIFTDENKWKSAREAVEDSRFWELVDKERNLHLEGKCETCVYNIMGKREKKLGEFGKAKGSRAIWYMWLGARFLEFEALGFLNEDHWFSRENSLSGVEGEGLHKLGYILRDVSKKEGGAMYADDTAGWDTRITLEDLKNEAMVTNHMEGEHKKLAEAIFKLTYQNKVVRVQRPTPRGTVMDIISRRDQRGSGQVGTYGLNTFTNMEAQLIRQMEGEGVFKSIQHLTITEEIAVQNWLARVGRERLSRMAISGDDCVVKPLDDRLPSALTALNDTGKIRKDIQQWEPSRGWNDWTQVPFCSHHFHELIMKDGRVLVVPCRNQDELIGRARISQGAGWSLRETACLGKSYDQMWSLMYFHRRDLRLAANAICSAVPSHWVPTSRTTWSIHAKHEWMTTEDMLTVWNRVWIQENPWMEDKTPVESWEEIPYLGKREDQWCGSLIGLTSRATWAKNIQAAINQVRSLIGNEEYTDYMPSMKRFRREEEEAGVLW
Sequence of Ras and Rab interactor 1/Tyrosine-protein kinase ABL1 (P00519 whole entry): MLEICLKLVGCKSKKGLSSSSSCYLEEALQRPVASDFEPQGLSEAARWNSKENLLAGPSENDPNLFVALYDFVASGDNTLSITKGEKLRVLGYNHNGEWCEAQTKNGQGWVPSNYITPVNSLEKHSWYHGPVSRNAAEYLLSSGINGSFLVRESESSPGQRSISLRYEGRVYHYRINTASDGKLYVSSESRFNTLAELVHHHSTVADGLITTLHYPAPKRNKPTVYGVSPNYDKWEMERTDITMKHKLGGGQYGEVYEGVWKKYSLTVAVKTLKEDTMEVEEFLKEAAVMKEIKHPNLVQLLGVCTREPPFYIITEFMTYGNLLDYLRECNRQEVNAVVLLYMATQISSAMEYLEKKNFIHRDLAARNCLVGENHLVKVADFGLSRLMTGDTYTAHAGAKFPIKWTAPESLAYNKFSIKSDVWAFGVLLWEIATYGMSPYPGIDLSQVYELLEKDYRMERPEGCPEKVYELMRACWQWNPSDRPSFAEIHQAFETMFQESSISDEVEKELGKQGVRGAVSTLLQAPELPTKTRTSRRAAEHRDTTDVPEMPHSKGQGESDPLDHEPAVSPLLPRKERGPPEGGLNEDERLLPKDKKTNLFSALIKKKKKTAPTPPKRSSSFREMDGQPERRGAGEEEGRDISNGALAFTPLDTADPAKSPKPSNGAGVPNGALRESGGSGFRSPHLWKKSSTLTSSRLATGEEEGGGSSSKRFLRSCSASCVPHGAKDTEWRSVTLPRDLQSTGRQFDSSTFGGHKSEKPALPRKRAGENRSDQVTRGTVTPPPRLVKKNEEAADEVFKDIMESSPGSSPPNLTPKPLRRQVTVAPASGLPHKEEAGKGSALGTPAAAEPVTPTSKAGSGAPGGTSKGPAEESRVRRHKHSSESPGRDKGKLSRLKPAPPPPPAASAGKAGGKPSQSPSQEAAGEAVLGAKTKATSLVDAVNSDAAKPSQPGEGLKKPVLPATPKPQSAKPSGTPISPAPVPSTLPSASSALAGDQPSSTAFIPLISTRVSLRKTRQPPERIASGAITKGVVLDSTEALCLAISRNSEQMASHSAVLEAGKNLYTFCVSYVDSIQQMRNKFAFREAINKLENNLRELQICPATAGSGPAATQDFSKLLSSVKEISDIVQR
Sequence of Ras and Rab interactor 1/Tyrosine-protein kinase ABL1 (Q13671 whole entry): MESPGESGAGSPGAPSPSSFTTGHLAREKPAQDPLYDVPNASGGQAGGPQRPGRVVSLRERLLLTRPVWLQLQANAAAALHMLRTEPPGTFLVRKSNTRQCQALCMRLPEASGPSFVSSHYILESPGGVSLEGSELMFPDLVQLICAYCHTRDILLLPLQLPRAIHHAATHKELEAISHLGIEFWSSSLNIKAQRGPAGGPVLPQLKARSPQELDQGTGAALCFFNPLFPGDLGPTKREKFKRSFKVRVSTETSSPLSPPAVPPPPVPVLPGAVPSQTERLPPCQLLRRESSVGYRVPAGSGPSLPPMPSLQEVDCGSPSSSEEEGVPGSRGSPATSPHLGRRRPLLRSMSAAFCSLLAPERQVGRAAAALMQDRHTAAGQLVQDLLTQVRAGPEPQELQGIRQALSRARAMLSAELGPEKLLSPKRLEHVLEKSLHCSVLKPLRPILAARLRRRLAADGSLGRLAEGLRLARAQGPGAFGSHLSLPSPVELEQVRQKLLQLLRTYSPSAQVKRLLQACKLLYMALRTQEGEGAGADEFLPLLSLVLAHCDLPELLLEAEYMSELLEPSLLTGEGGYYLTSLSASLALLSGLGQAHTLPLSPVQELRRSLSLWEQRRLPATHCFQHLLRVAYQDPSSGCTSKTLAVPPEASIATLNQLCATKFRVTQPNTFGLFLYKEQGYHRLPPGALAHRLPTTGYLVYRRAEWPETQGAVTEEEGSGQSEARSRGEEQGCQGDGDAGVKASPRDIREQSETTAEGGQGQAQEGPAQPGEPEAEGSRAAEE

Question: Which results are given for O=C(N=Nc1c(O)[nH]c2ccccc12)c1cccc(S(=O)(=O)Nc2ccccc2Cl)c1?
Answer: IC50 (CHO-K1): > 66.2 µM (inactive); IC50 [1]: > 49.8 µM (inactive); IC50 [2]: 1.01 µM (active); IC50 [3]: > 49.8 µM (inactive); IC50 (Orexin receptor type 2 [4]): > 88.8 µM (inactive); IC50 (Orexin receptor type 2 [5]): > 50 µM (inactive)

Question: What does the source list for CC1=NN(Cc2ccccc2)C(=O)C1C(c1ccccc1)C(C#N)C#N (stereo unspecified)?
Answer: AC50 [6]: 5.37 µM (active); AC50 [7]: 3.54 µM (active); EC50 (Protein RecA): 2.22 µM (active); IC50 (Genome polyprotein): 55.4 µM (active)

Question: Which EC50 [8] does the source give for N=C(NOC(=O)c1ccc2ccccc2c1)c1ccccc1Cl here?
Answer: 1.8 µM (active)

Question: And the EC50 [9]?
Answer: 8.76 µM (active)

Question: What about the AC50 [10] of the same molecule?
Answer: 2.34 µM (active)

Question: Which results are given for CCOC(=O)N1CCC(NC(=O)CCc2nc(C3=CCN(C)CC3)no2)CC1?
Answer: EC50 [11]: > 112 µM (not active); EC50 [12]: > 112 µM (not active); AC50 (Cytochrome P450 2C19): 11.2 µM (inconclusive); IC50 [13]: 5.11 µM (active); AC50 (Cytochrome P450 1A2): 1 µM (inconclusive); AC50 (Cytochrome P450 3A4): 25.1 µM (inconclusive)

Question: What does the source list for CC(Nc1cncc(-n2cnc3ccccc32)n1)c1ccc(F)cc1 (stereo unspecified)?
Answer: Ki (Aurora kinase A): 1.26 µM (active); Ki (Aurora kinase B): 0.0794 µM (active)
